Legend:
MATIN [1] = experiment: Pre-emergence action against MATIN, 1280 g/ha; assay type: in vivo, Tripleurospermum inodorum (Matricaria inodora); conditions: scored visually after about 3 weeks vs untreated controls (100% = plants have died)
From the text: (§1) 1. Pre-Emergence Herbicidal Effect and Crop Plant Compatibility a) Seeds of mono- and dicotyledonous weed plants are placed in plastic pots in sandy loam soil (doubly sown with one species each of mono- or dicotyledonous weed plants per pot) and covered with soil. The compounds of the invention, formulated in the form of wettable powders (WP) or as emulsion concentrates (EC), are then applied onto the surface of the covering soil as aqueous suspension or emulsion with addition of 0.5% additive at a water application rate equivalent to 600 litres per hectare. After the treatment, the pots are placed in a greenhouse and kept under good growth conditions for the trial plants. After about 3 weeks, the effect of the preparations is scored visually in comparison with untreated controls as percentages. For example, 100% activity=the plants have died, 0% activity=like control plants. 1. Pre-Emergence Effectiveness Tables 1 to 12 below show the effects of selected compounds of the general formula (I) according to Tables 1 and 2 on various harmful plants and at an application rate corresponding to 1280 g/ha, which were obtained by the experimental procedure mentioned above.

VERPE [2] = experiment: Post-emergence action against VERPE, 1.28 kg/ha; assay type: in vivo, Veronica persica; conditions: dosage 1280 g/ha, visual rating about 3 weeks after treatment vs untreated controls (100% = plants died)
Method: (§2) • a) Seeds of mono- and dicotyledonous weed plants are placed in plastic pots in sandy loam soil (twin sowing with one species each of mono- or dicotyledonous weed plants per pot), covered with soil and cultivated in a greenhouse under controlled growth conditions. 2 to 3 weeks after sowing, the test plants are treated at the one-leaf stage. The compounds of the invention, formulated in the form of wettable powders (WP) or as emulsion concentrates (EC), are applied to the green parts of the plants as aqueous suspension or emulsion with addition of 0.5% additive at a water application rate equivalent to 600 litres per hectare. After the test plants have been kept in the greenhouse under optimum growth conditions for about 3 weeks, the activity of the preparations is rated visually in comparison to untreated controls. For example, 100% activity=the plants have died, 0% activity=like control plants. As shown by the results, compounds of the general formula (I) of the invention, in post-emergence treatment, have very good herbicidal efficacy (90% to 100% herbicidal action) against harmful plants such as Abutilon theophrasti, Digitaria sanguinalis, Echinochloa crus-galli, Matricaria inodora, Poa annua, at an application rate of 1.28 kg of active substance per hectare.

LOLRI = experiment: Pre-emergence action against LOLRI, 1280 g/ha; assay type: in vivo, Lolium rigidum; conditions: visual scoring after about 3 weeks vs untreated controls, 100% = plants have died, 0% = like control plants
From the text: as §1

AMARE [3] = experiment: Pre-emergence action against AMARE, 1280 g/ha; assay type: in vivo, Amaranthus retroflexus; conditions: scored visually after about 3 weeks vs untreated controls (100% = plants have died)
From the text: as §1

VERPE [4] = experiment: Pre-emergence action against VERPE, 1280 g/ha; assay type: in vivo, Veronica persica; conditions: scored visually after about 3 weeks vs untreated controls (100% = plants have died)
From the text: as §1

POAAN [5] = experiment: Post-emergence action against POAAN, 1.28 kg/ha; assay type: in vivo, Poa annua; conditions: dosage 1280 g/ha, visual rating about 3 weeks after treatment vs untreated controls
Method: as §2

ECHCG [6] = experiment: Pre-emergence action against ECHCG, 1280 g/ha; assay type: in vivo, Echinochloa crus-galli; conditions: visual scoring after about 3 weeks vs untreated controls, 100% = plants have died, 0% = like control plants
From the text: as §1

ECHCG [7] = experiment: Post-emergence action against ECHCG, 1.28 kg/ha; assay type: in vivo, Echinochloa crus-galli; conditions: dosage 1280 g/ha, visual rating about 3 weeks after treatment vs untreated controls
Method: as §2

DIGSA [8] = experiment: Post-emergence action against DIGSA, 1.28 kg/ha; assay type: in vivo, Digitaria sanguinalis; conditions: dosage 1280 g/ha, visual rating about 3 weeks after treatment vs untreated controls
Method: as §2

ABUTH = experiment: Post-emergence action against ABUTH, 1.28 kg/ha; assay type: in vivo, Abutilon theophrasti; conditions: dosage 1280 g/ha, visual rating about 3 weeks after treatment vs untreated controls (100% = plants died)
Method: as §2

DIGSA [9] = experiment: Pre-emergence action against DIGSA, 1280 g/ha; assay type: in vivo, Digitaria sanguinalis; conditions: visual scoring after about 3 weeks vs untreated controls, 100% = plants have died, 0% = like control plants
From the text: as §1

STEME = experiment: Pre-emergence action against STEME, 1280 g/ha; assay type: in vivo, Stellaria media; conditions: scored visually after about 3 weeks vs untreated controls (100% = plants have died)
From the text: as §1

ALOMY [10] = experiment: Post-emergence action against ALOMY, 1.28 kg/ha; assay type: in vivo, Alopecurus myosuroides; conditions: dosage 1280 g/ha, visual rating about 3 weeks after treatment vs untreated controls
Method: as §2

ALOMY [11] = experiment: Pre-emergence action against ALOMY, 1280 g/ha; assay type: in vivo, Alopecurus myosuroides; conditions: visual scoring after about 3 weeks vs untreated controls, 100% = plants have died, 0% = like control plants
From the text: as §1

POAAN [12] = experiment: Pre-emergence action against POAAN, 1280 g/ha; assay type: in vivo, Poa annua; conditions: visual scoring after about 3 weeks vs untreated controls, 100% = plants have died, 0% = like control plants
From the text: as §1

SETVI [13] = experiment: Pre-emergence action against SETVI, 1280 g/ha; assay type: in vivo, Setaria viridis; conditions: visual scoring after about 3 weeks vs untreated controls, 100% = plants have died, 0% = like control plants
From the text: as §1

MATIN [14] = experiment: Post-emergence action against MATIN, 1.28 kg/ha; assay type: in vivo, Tripleurospermum inodorum (Matricaria inodora); conditions: dosage 1280 g/ha, visual rating about 3 weeks after treatment vs untreated controls (100% = plants died)
Method: as §2

POLCO = experiment: Pre-emergence action at 320 g/ha against POLCO; assay type: in vivo, Fallopia convolvulus (Polygonum convolvulus); conditions: visual scoring after about 3 weeks vs untreated controls
From the text: (§3) b) Seeds of monocotyledonous and dicotyledonous weed plants and crop plants are placed in plastic or organic planting pots and covered with soil. The compounds of the invention, formulated in the form of wettable powders (WP) or as emulsion concentrates (EC), are then applied onto the surface of the covering soil as aqueous suspension or emulsion with addition of 0.5% additive at a water application rate of 600 l/ha (converted). After the treatment, the pots are placed in a greenhouse and kept under good growth conditions for the trial plants. After about 3 weeks, the effect of the preparations is scored visually in comparison with untreated controls as percentages. For example, 100% activity=the plants have died, 0% activity=like control plants. Tables 13 to 26 below show the effects of selected compounds of the general formula (I) on various harmful plants and at an application rate corresponding to 320 g/ha, which were obtained by the experimental procedure mentioned above.

SETVI [15] = experiment: Pre-emergence action at 320 g/ha against SETVI; assay type: in vivo, Setaria viridis; conditions: visual scoring after about 3 weeks vs untreated controls
From the text: as §3

MATIN [16] = experiment: Pre-emergence action at 320 g/ha against MATIN; assay type: in vivo, Tripleurospermum inodorum (Matricaria inodora); conditions: visual scoring after about 3 weeks vs untreated controls
From the text: as §3

ALOMY [17] = experiment: Pre-emergence action at 320 g/ha against ALOMY; assay type: in vivo, Alopecurus myosuroides; conditions: scored visually after about 3 weeks vs untreated controls (100% = plants have died)
From the text: as §3

AMARE [18] = experiment: Pre-emergence action at 320 g/ha against AMARE; assay type: in vivo, Amaranthus retroflexus; conditions: visual scoring after about 3 weeks vs untreated controls
From the text: as §3

VIOTR = experiment: Pre-emergence action at 320 g/ha against VIOTR; assay type: in vivo, Viola tricolor; conditions: dosage 320 g/ha
From the text: as §3

SETVI [19] = experiment: Post-emergence action against SETVI, 1.28 kg/ha; assay type: in vivo, Setaria viridis; conditions: dosage 1280 g/ha, visual rating about 3 weeks after treatment vs untreated controls
Method: as §2

AMARE [20] = experiment: Post-emergence action against AMARE, 1.28 kg/ha; assay type: in vivo, Amaranthus retroflexus; conditions: dosage 1280 g/ha, visual rating about 3 weeks after treatment vs untreated controls (100% = plants died)
Method: as §2

VERPE [21] = experiment: Pre-emergence action at 320 g/ha against VERPE; assay type: in vivo, Veronica persica; conditions: visual scoring after about 3 weeks vs untreated controls
From the text: as §3

| Structure (SMILES) | Pre-emergence action against MATIN (MATIN [1]) | Post-emergence action against VERPE (VERPE [2]) | Pre-emergence action against LOLRI (LOLRI) | Pre-emergence action against AMARE (AMARE [3]) | Pre-emergence action against VERPE (VERPE [4]) | Post-emergence action against POAAN (POAAN [5]) | Pre-emergence action against ECHCG (ECHCG [6]) | Post-emergence action against ECHCG (ECHCG [7]) | Post-emergence action against DIGSA (DIGSA [8]) | Post-emergence action against ABUTH (ABUTH) | Pre-emergence action against DIGSA (DIGSA [9]) | Pre-emergence action against STEME (STEME) | Post-emergence action against ALOMY (ALOMY [10]) | Pre-emergence action against POAAN (POAAN [12]) | Pre-emergence action against SETVI (SETVI [13]) | Post-emergence action against MATIN (MATIN [14]) | Pre-emergence action against AMARE in % (AMARE [18]) | Pre-emergence action against VIOTR in % (VIOTR) | Post-emergence action against AMARE (AMARE [20]) | Pre-emergence action against VERPE in % (VERPE [21]) | also measured |
| --- | --- | --- | --- | --- | --- | --- | --- | --- | --- | --- | --- | --- | --- | --- | --- | --- | --- | --- | --- | --- | --- |
| O=C(COc1nn(-c2ccccc2F)c(-c2ccc(F)nc2)c1Br)OCc1ccco1 [VII-098] | 90% | 90% | 100% | 100% | 100% | 100% | 100% | 90% | 100% | 90% | 100% | 100% | 100% | 100% | 100% | 100% |  |  |  |  | Pre-emergence action against ALOMY (ALOMY [11]): 100% |
| O=C(O)CNC(=O)C(F)Oc1nn(-c2ccccc2F)c(-c2ccc(F)nc2)c1Br (centres unmarked) [Example X-012] |  |  |  |  |  |  |  |  |  |  |  |  |  |  |  |  | 100% | 100% |  |  | Pre-emergence action against POLCO in % (POLCO): 90%; Pre-emergence action against SETVI in % (SETVI [15]): 90%; Pre-emergence action against MATIN in % (MATIN [16]): 90%; Pre-emergence action at 320 g/ha against ALOMY in % (ALOMY [17]): 90% |
| CCOC(=O)COc1nn(-c2ccc(F)cc2F)c(-c2ccc(F)nc2)c1F [VII-027] | 90% | 90% | 100% | 90% |  |  | 90% |  | 100% |  | 90% | 100% | 100% | 90% | 90% |  |  |  | 90% |  | Post-emergence action against SETVI (SETVI [19]): 90% |
| CCOC(=O)COc1nn(-c2ccccc2F)c(-c2cnccn2)c1Br [Example I-004] | 90% | 100% | 90% | 100% | 90% |  | 90% | 90% |  | 90% | 90% | 100% | 100% | 100% | 100% |  |  |  | 90% |  |  |
| CCOC(=O)COc1nn(-c2ccccc2F)c(-c2ccc(F)nc2)c1C(F)F [VII-078] |  |  |  |  |  |  |  |  |  |  |  |  |  |  |  |  | 100% | 90% |  | 80% | Pre-emergence action at 320 g/ha against ALOMY in % (ALOMY [17]): 80% |
| CCOC(=O)COc1nn(-c2ccccc2F)c(-c2ccc(F)cn2)c1Br [II-014] | 100% | 90% | 100% | 90% | 100% | 90% | 100% |  | 90% | 90% | 100% | 90% |  | 100% | 90% | 90% |  |  | 90% |  | Pre-emergence action against ALOMY (ALOMY [11]): 100% |
| COC(=O)COc1nn(-c2ccccc2F)c(-c2ccc(F)nc2)c1SC [VII-123] | 100% | 90% | 90% | 90% | 90% | 100% |  | 100% |  | 90% | 100% | 90% | 90% | 100% |  | 90% |  |  | 90% |  |  |
| COC(=O)C1CCCN(C(=O)COc2nn(-c3ccccc3F)c(-c3cncc(F)c3)c2Br)C1 (centres unmarked) [Example X-034] |  |  |  |  |  |  |  |  |  |  |  |  |  |  |  |  |  | 90% |  | 90% |  |
| COC(=O)C1CCN(C(=O)COc2nn(-c3ccccc3F)c(-c3cncc(F)c3)c2Br)C1 (centres unmarked) [Example X-037] |  |  |  |  |  |  |  |  |  |  |  |  |  |  |  |  | 100% |  |  | 100% | Pre-emergence action against POLCO in % (POLCO): 90% |

Reference: US12180187B2, “1-phenyl-5-azinylpyrazolyl-3-oxyalkyl acids and their use for controlling unwanted plant growth” (BAYER AKTIENGESELLSCHAFT, priority 2019, dated 2024)
